Laboratory results from the supplement of paper PMC7840683.
± gives the standard deviation of the averaged measurements.

System: HepaRG
Experiment: LDH release cytotoxicity, % of total lysis control; higher = more cytotoxic
Settings: 48 h
How it was run: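 Single-lot HepaRG cells in collagen I-coated 96-well plates were treated for 48 h in serum-free induction medium containing 0.5% DMSO with test chemicals in eight-point half-log series up to 100 µM. For total lysis, wells received 0.1% Triton X. LDH in 50 µL spent medium was assayed by resorufin fluorescence with CytoTox-ONE. Percent cytotoxicity was normalized to the on-plate vehicle and total lysis controls, with duplicates averaged.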

Row | Structure (SMILES) | LDH release cytotoxicity (0.031623 µM) | LDH release cytotoxicity (0.1 µM) | LDH release cytotoxicity (0.316228 µM) | LDH release cytotoxicity (1 µM) | LDH release cytotoxicity (3.16228 µM) | LDH release cytotoxicity (10 µM) | LDH release cytotoxicity (31.6228 µM) | LDH release cytotoxicity (100 µM) | LDH release cytotoxicity (0.03162 µM) | LDH release cytotoxicity (0.3162278 µM) | LDH release cytotoxicity (0.031939 µM) | LDH release cytotoxicity (0.101 µM) | LDH release cytotoxicity (0.31939 µM) | LDH release cytotoxicity (1.01 µM) | LDH release cytotoxicity (3.1939004 µM) | LDH release cytotoxicity (10.1 µM) | LDH release cytotoxicity (31.939 µM) | LDH release cytotoxicity (101 µM)
1 | CCCCC=O [Pentanal] | 0.98 ± 0.79% | -1.98 ± 0.44% | -0.995 ± 0.23% | -1.67 ± 0.41% | -1.94 ± 0.15% | -1.12 ± 0.47% | -1.6 ± 0.26% | 0.803 ± 0.68% |  |  |  |  |  |  |  |  |  | 
2 | CCNS(=O)(=O)C(F)(F)C(F)(F)C(F)(F)C(F)(F)C(F)(F)C(F)(F)C(F)(F)C(F)(F)F [N-Ethylperfluorooctanesulfonamide] |  | -0.363 ± 0.53% |  | -0.894 ± 0.41% | -1.27 ± 0.88% | -0.5 ± 0.13% | 0.958 ± 1.5% | 2.37 ± 1% | -0.318 ± 1.2% | -1.47 ± 0.29% |  |  |  |  |  |  |  | 
3 | C[C@](N)(Cc1ccc(O)c(O)c1)C(=O)O [Methyldopa sesquihydrate] |  | -1.62 ± 1.9% |  | -1.87 ± 0.72% | -1.57 ± 0.67% | -0.513 ± 0.67% | -2.01 ± 0.42% | -2.91 ± 0.43% | -0.769 ± 0.75% | -0.864 ± 0.56% |  |  |  |  |  |  |  | 
4 | O=C(O)c1nc(Cl)ccc1Cl [Clopyralid] |  | -1.08 ± 0.48% |  | -1.03 ± 0.57% | -0.337 ± 0.046% | 0.0712 ± 0.39% | 0.653 ± 1.2% | 2.21 ± 0.38% | -0.598 ± 0.35% | -0.606 ± 0.19% |  |  |  |  |  |  |  | 
5 | CC(=O)OCCOCCOCCOC(C)=O [Triethylene glycol diacetate] |  | -1.98 ± 0.077% |  | -1.55 ± 0.41% | 0.0849 ± 2% | -1.35 ± 0.28% | -0.553 ± 0.033% | 1.55 ± 0.07% | -2% | -1.83 ± 0.78% |  |  |  |  |  |  |  | 
6 | CC(C)(C)C(=O)C(Oc1ccc(Cl)cc1)n1cncn1 (configuration not stated) [Triadimefon] |  |  |  |  |  |  |  |  |  |  | -0.92 ± 0.21% | -0.0413 ± 0.61% | -0.707 ± 0.2% | -0.437 ± 0.008% | 0.192 ± 0.53% | -0.0819 ± 0.64% | 0.1 ± 0.59% | 0.544 ± 0.74%
7 | CCC(C)OC(=O)N1CCCCC1CCO (configuration not stated) [Icaridin] |  | 4.72 ± 0.94% |  | 5.97 ± 4% | 5.34 ± 1.5% | 2.82 ± 1.4% | 8.294 ± 0.063% | 9.41 ± 0.56% | 6.64 ± 2.3% | 4.33 ± 2.2% |  |  |  |  |  |  |  | 
8 | CC1=NC(=S)NC(=O)C1 [6-Methyl-2-thiouracil] |  | -0.548 ± 0.32% |  | 0.268 ± 0.56% | 0.0334 ± 0.84% | 0.892 ± 0.68% | 0.733 ± 1.8% | 0.731 ± 1.2% | -1.61 ± 0.11% | 0.567 ± 0.55% |  |  |  |  |  |  |  | 
9 | CN(C)CCO [Dimethylaminoethanol] |  | -0.302 ± 1.6% |  | -1.37 ± 0.049% | -1.09 ± 1.8% | -1.02 ± 0.62% | -0.601 ± 0.24% | 1.07 ± 0.52% | 0.182 ± 0.62% | -0.0529 ± 0.18% |  |  |  |  |  |  |  | 
10 | CCCCC(CC)COC(=O)CC(C(=O)OCC(CC)CCCC)S(=O)(=O)O (configuration not stated) [Docusate sodium] |  | -0.373 ± 0.42% |  | -0.887 ± 0.12% | -0.195 ± 0.3% | -1.39 ± 0.72% | 1.52 ± 0.59% | 75.5 ± 1.1% | -1.66 ± 0.36% | -0.361 ± 0.69% |  |  |  |  |  |  |  | 
11 | COCCOc1cc2cc(C(=O)NC3CCN(C(C)C)CC3)n(CC(=O)Nc3ccc(Cl)cn3)c2cn1 |  | -0.956 ± 0.47% |  | -1.56 ± 0.7% | -0.955 ± 0.44% | -0.194 ± 0.17% | 13.4 ± 1% | 96.77 ± 0.093% | -0.433 ± 0.89% | -0.802 ± 0.14% |  |  |  |  |  |  |  | 
12 | CC#CC1(O)CCC2C3CCC4=CC(=O)CCC4=C3C(c3ccc(N(C)C)cc3)CC21C (configuration not stated) [Mifepristone] |  | -1.11 ± 0.089% |  | 2.47 ± 0.61% | 17.4 ± 0.87% | 31.5 ± 1.6% | 42.2 ± 5.7% | 60.9 ± 3% | -0.549 ± 0.3% | -0.633 ± 0.052% |  |  |  |  |  |  |  | 
13 | CNC(=O)Oc1cccc2ccccc12 [Carbaryl] |  | -1.82 ± 1.5% |  | -0.688 ± 1.2% | -0.561 ± 0.076% | 0.0525 ± 0.91% | 0.246 ± 1.1% | 0.543 ± 0.82% | -0.447 ± 0.24% | -1.28 ± 0.7% |  |  |  |  |  |  |  | 
14 | CC(C)N1C(=O)c2ccccc2NS1(=O)=O [Bentazone] |  | -0.547 ± 0.14% |  | -0.283 ± 0.7% | -0.149 ± 0.18% | 0.303 ± 0.12% | -0.174 ± 0.19% | 2.45 ± 1.1% | -0.772 ± 0.46% | 0.0696 ± 0.91% |  |  |  |  |  |  |  | 
15 | Cc1cccc([N+](=O)[O-])c1C [1,2-Dimethyl-3-nitrobenzene] |  | -0.56 ± 0.35% |  | 0.0899 ± 0.093% | -0.155 ± 0.3% | 2.03 ± 0.56% | 1.1 ± 0.079% | 1.87 ± 0.3% | 0.0499 ± 0.58% | -0.0544 ± 1% |  |  |  |  |  |  |  | 
16 | CCC(CC)Nc1c([N+](=O)[O-])cc(C)c(C)c1[N+](=O)[O-] [Pendimethalin] |  | -1.6 ± 0.38% |  | 0.269 ± 1.7% | 1.12 ± 0.21% | 0.875 ± 1.2% | -2.25 ± 0.069% | 1.08 ± 1.2% | -2.12 ± 0.66% | -0.436 ± 0.39% |  |  |  |  |  |  |  | 
17 | COc1ccc(C(=O)Nc2nc3ccccc3c(NCc3ccccc3)c2C#N)cc1 |  | -0.452 ± 0.066% |  | 0.715 ± 0.075% | 2.34 ± 0.3% | 2.97 ± 0.97% | 4.87 ± 0.81% | 8.05 ± 0.67% | -1.06 ± 0.44% | -0.037 ± 0.4% |  |  |  |  |  |  |  | 
18 | CC1(C)NC(=O)NC1=O [5,5-Dimethylhydantoin] |  | -2.28 ± 1% |  | -3.5 ± 0.27% | -1.38 ± 0.42% | -1.82 ± 0.26% | -1.07 ± 0.056% | 1.93 ± 1.1% | -2.18 ± 0.37% | -2.14 ± 0.96% |  |  |  |  |  |  |  | 
19 | CC(C)C(=O)OCC(C)(C)C(OC(=O)C(C)C)C(C)C (configuration not stated) [2,2,4-Trimethyl-1,3-pentanediol diisobutyrate] |  | -3.46 ± 0.69% |  | -2.95 ± 0.15% | -3.05 ± 0.42% | -2.18 ± 0.16% | -2.05 ± 0.51% | 0.686 ± 0.88% | -1.97 ± 1.2% | -3.48 ± 0.61% |  |  |  |  |  |  |  | 
